Format in all cases: in vivo
The test system of experiment [1] is Cotton Aphid (Aphis gossypii). The experiment in a line: Cotton aphid test, cotyledons dipped in test solution. The note with it: 120 h, cotton plants, after 5 days, read-out: mortality in comparison with untreated controls. The protocol: (§1) Surfactant (Alkamuls EL 620) was added at the rate of 0.1% (vol/vol).
(§2) After the experiments were completed, in each case the lowest concentration was determined at which the compound still caused an 75 to 100% inhibition or mortality in comparison with untreated controls (limit or minimal concentration).
Cotton plants in the cotyledon stage (variety ‘Delta Pine’) are infested with approximately 100 laboratory-reared aphids by placing infested leaf sections on top of the test plants. The leaf sections are removed after 24 hr. The cotyledons of the intact plants are dipped into gradient solutions of the test compound. Aphid mortality on the treated plants, relative to mortality on check plants, is determined after 5 days.

Experiment [2] relates to Green Peach Aphid (Myzus persicae). The experiment in a line: Green peach aphid test, pepper leaves dipped. The conditions noted are these: 120 h, read-out: mortality in comparison with untreated controls. The protocol: as §1, §2
Pepper plants in the 2nd leaf-pair stage (variety ‘California Wonder’) are infested with approximately 40 laboratory-reared aphids by placing infested leaf sections on top of the test plants. The leaf sections are removed after 24 hr. The leaves of the intact plants are dipped into gradient solutions of the test compound. Aphid mortality on the treated plants, relative to mortality on check plants, is determined after 5 days.

For experiment [3], the system named is Twospotted Spider Mite (Tetranychus urticae). The experiment in a line: Twospotted spider mite test, lima bean foliage dipped. The note with it: foliar, 120 h, lima bean plants, after 5 days, read-out: mortality in comparison with untreated controls. As to the method:
as §1, §2
Lima bean plants in the 1st leaf-pair stage (variety ‘Henderson’) are infested with approximately 100 laboratory-reared mites per leaf by placing infested leaf sections on top of the test plants. The leaf sections are removed after 24 hr. The foliage of the intact plants is dipped into gradient solutions of the test compound. Mite mortality is determined after 5 days.

A further experiment relates to Bean Aphid (Aphis fabae). The experiment is described as follows: Bean aphid test, nasturtium foliage and stem dipped. The conditions noted are these: foliar, 72 h, nasturtium plants, after 3 days, read-out: mortality in comparison with untreated controls. As to the method:
as §1, §2
Nasturtium plants in the 1st leaf-pair stage (variety ‘Mixed Jewel’) are infested with approximately 25 laboratory-reared aphids by placing infested cut plants on top of the test plants. The cut plants are removed after 24 hr. The foliage and stem of the test plants are dipped into gradient solutions of the test compound. Aphid mortality is determined after 3 days.

The structures appear in SMILES notation.

Consider `Cc1nc2ncnn2c(N[C@@H](C)c2ccc(F)cc2)c1Cl` [Example 114, (S)-(6-chloro-5-methyl-[1,2,4]triazolo[1,5-a]pyrimidin-7-yl)-[1-(4-fluorophenyl)-ethyl]-amine], for which the mortality (commonly the percentage killed) at 300 ppm was more than 75% in experiment [1] and 100% in experiment [2].
With `CCc1nc2ncnn2c(N[C@H]2CC[C@@H](C(C)(C)C)CC2)c1Cl` [Example 1, (cis-4-tert-butyl-cyclohexyl)-[6-chloro-5-ethyl-[1,2,4]triazolo[1,5-a]pyrimidin-7-yl]-amine], the mortality at 300 ppm in experiment [1] is more than 75%; in experiment [3] it was more than 75%; in experiment [2] it was 100%; in the experiment on Bean Aphid (Aphis fabae) it was more than 75%.

These data come from patent US8664235B2, “6-Halogeno-[1,2,4]triazolo[1,5-a]pyrimidines for combating animal pests” (Merial Limited, priority 2003, dated 2014).
